Test results from US8859494B2, “Spirocyclically substituted 1,3-propane dioxide derivatives, processes for preparation thereof and use thereof as a medicament” (Sanofi, priority 2010, dated 2014).

Biological target: T1, GPCR GPR40 (Rattus norvegicus, UniProt Q8K3T4)
T1 construct: expressed in transfected cells; host or cells: HEK293
Test: In vitro FLIPR assay with recombinant cells which express the GPCR GPR40
Format: cell-based
Conditions: recombinant HEK293 cells expressing GPR40; agonist-induced change in intracellular Ca2+ (Fluo-4, FLIPR); 100% = 10 μM reference agonist linoleic acid
Experimental: In Vitro FLIPR Assay with Recombinant Cells which Express the GPCR GPR40
Function-testing assays were performed by means of the FLIPR technique (“Fluorescence Imaging Plate Reader”, Molecular Devices Corp.). For this purpose, agonist-induced changes were determined in the intracellular concentration of Ca^2+ in recombinant HEK293 cells which expressed the GPCR GPR40.
For the studies, cells were sown into 96-well microtiter plates (60 000 cells/well) and left to grow overnight. The medium was removed and the cells were incubated in buffer which contains the fluorescent dye Fluo-4. After this loading with dye, the cells were washed, test substance was added and changes were measured in the intracellular Ca^2+ concentration in the FLIPR instrument. Results were presented as the percentage change relative to the control (0%: no test substance added; 100%: 10 μM reference agonist linoleic acid added) and used to calculate dose/effect curves, and EC50 values were determined.

T1 sequence (Q8K3T4 whole entry): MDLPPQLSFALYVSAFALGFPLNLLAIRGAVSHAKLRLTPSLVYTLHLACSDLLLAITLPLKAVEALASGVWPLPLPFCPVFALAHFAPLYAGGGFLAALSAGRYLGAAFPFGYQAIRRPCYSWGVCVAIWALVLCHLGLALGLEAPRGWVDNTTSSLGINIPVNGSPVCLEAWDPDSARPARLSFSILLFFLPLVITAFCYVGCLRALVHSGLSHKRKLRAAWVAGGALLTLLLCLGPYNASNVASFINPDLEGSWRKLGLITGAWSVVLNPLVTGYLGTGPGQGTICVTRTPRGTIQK

Row | SMILES | EC50 [µM]
1 | CC#CC(CC(=O)O)c1ccc(OCC2(COc3cccc(C(C)(C)C)c3)CC2)cc1 (stereo not drawn) [Example 1, 3-{4-[1-(3-tert-Butylphenoxymethyl)cyclopropylmethoxy]phenyl}hex-4-ynoic acid] | 0.73
2 | CC#CC(CC(=O)O)c1ccc(OCC2(COc3cccc(Cl)c3)CC2)cc1 (stereo not drawn) [Example 3, 3-{4-[1-(3-Chlorophenoxymethyl)cyclopropylmethoxy]phenyl}hex-4-ynoic acid] | 0.29
3 | CC#CC(CC(=O)O)c1ccc(OCC2(COc3cccc(C)c3)CCC2)cc1 (stereo not drawn) [Example 7, 3-[4-(1-m-Tolyloxymethylcyclobutylmethoxy)phenyl]hex-4-ynoic acid] | 1.54
4 | CC#CC(CC(=O)O)c1ccc(OCC2(COc3ccccc3)CCC2)cc1 (stereo not drawn) [Example 8, 3-[4-(1-Phenoxymethylcyclobutylmethoxy)phenyl]hex-4-ynoic acid] | 0.45
5 | CC#CC(CC(=O)O)c1ccc(OCC2(COc3cccc(C)c3)CC2)cc1 (stereo not drawn) [Example 11, 3-[4-(1-m-Tolyloxymethylcyclopropylmethoxy)phenyl]hex-4-ynoic acid] | 0.15
6 | CC#CC(CC(=O)O)c1ccc(OCC2(COc3ccc(C(F)(F)F)nc3)CC2)cc1 (stereo not drawn) [Example 13, 3-{4-[1-(6-Trifluoromethylpyridin-3-yloxymethyl)cyclopropylmethoxy]phenyl}hex-4-ynoic acid] | 0.71
7 | CC#CC(CC(=O)O)c1ccc(OCC2(COc3ccc(C(F)(F)F)cc3Cl)CC2)cc1 (stereo not drawn) [Example 15, 3-{4-[1-(2-Chloro-4-trifluoromethylphenoxymethyl)cyclopropylmethoxy]phenyl}hex-4-acid] | 1.58
8 | COC(CC(=O)O)c1ccc(OCC2(COc3ccc(C(F)(F)F)cn3)CC2)cc1 (stereo not drawn) [Example 16, 3-Methoxy-3-{4-[1-(5-trifluoromethylpyridin-2-yloxymethyl)cyclopropylmethoxy]phenyl}-propionic acid] | 2.46
9 | CC#CC(CC(=O)O)c1ccc(OCC2(COc3ccccc3C)CC2)cc1 (stereo not drawn) [Example 18, 3-[4-(1-o-Tolyloxymethylcyclopropylmethoxy)phenyl]hex-4-ynoic acid] | 0.06
10 | CC#CC(CC(=O)O)c1ccc(OCC2(COc3cccc(F)c3)CC2)cc1 (stereo not drawn) [Example 20, 3-{4-[1-(3-Fluorophenoxymethyl)cyclopropylmethoxy]phenyl}hex-4-ynoic acid] | 0.07

Results, then the molecule that gave them:

Row | EC50 [µM] | SMILES
11 | 0.37 | CC#CC(CC(=O)O)c1ccc(OCC2(COc3ccc(C(F)(F)F)cc3)CC2)cc1 (stereo not drawn) [Example 2, 3-{4-[1-(4-Trifluoromethylphenoxymethyl)cyclopropylmethoxy]phenyl}hex-4-ynoic acid]
12 | 2.55 | CC#CC(CC(=O)O)c1ccc(OCC2(COc3ccc(C(F)(F)F)cc3Cl)COC2)cc1 (stereo not drawn) [Example 4, 3-{4-[3-(2-Chloro-4-trifluoromethylphenoxymethyl)oxetan-3-ylmethoxy]phenyl}hex-4-ynoic acid]
13 | 2.56 | CC#CC(CC(=O)O)c1ccc(OCC2(COc3cccc(C(C)(C)C)c3)CCC2)cc1 (stereo not drawn) [Example 5, 3-{4-[1-(3-tert-Butylphenoxymethyl)cyclobutylmethoxy]phenyl}hex-4-ynoic acid]
14 | 1.32 | CC#CC(CC(=O)O)c1ccc(OCC2(COc3ccc(C(F)(F)F)cc3)CCC2)cc1 (stereo not drawn) [Example 6, 3-{4-[1-(4-Trifluoromethylphenoxymethyl)cyclobutylmethoxy]phenyl}hex-4-ynoic acid]
15 | 1.66 | CC#CC(CC(=O)O)c1ccc(OCC2(COc3cc(C(F)(F)F)cc(C(F)(F)F)c3)CC2)cc1 (stereo not drawn) [Example 9, 3-{4-[1-(3,5-Bis(trifluoromethyl)phenoxymethyl)cyclopropylmethoxy]phenyl}hex-4-ynoic acid]
16 | 0.07 | CC#CC(CC(=O)O)c1ccc(OCC2(COc3ccccc3)CC2)cc1 (stereo not drawn) [Example 10, 3-[4-(1-Phenoxymethylcyclopropylmethoxy)phenyl]hex-4-ynoic acid]
17 | 0.14 | CC#CC(CC(=O)O)c1ccc(OCC2(COc3ccc(C#N)c(Cl)c3)CC2)cc1 (stereo not drawn) [Example 12, 3-{4-[1-(3-Chloro-4-cyanophenoxymethyl)cyclopropylmethoxy]phenyl}hex-4-ynoic acid]
18 | 0.17 | CC#CC(CC(=O)O)c1ccc(OCC2(COc3ccc(C(F)(F)F)cn3)CC2)cc1 (stereo not drawn) [Example 14, 3-{4-[1-(5-Trifluoromethylpyridin-2-yloxymethyl)cyclopropylmethoxy]phenyl}hex-4-ynoic acid]
19 | 0.07 | CC#CC(CC(=O)O)c1ccc(OCC2(COc3ccc(F)cc3)CC2)cc1 (stereo not drawn) [Example 19, 3-{4-[1-(4-Fluorophenoxymethyl)cyclopropylmethoxy]phenyl}hex-4-ynoic acid]
20 | 0.11 | CC#CC(CC(=O)O)c1ccc(OCC2(COc3ccccc3F)CC2)cc1 (stereo not drawn) [Example 21, 3-{4-[1-(2-Fluorophenoxymethyl)cyclopropylmethoxy]phenyl}hex-4-ynoic acid]
21 | 0.33 | CC#CC(CC(=O)O)c1ccc(OCC2(COc3ccc(F)c(Cl)c3)CC2)cc1 (stereo not drawn) [Example 22, 3-{4-[1-(3-Chloro-4-fluorophenoxymethyl)cyclopropylmethoxy]phenyl}hex-4-ynoic acid]
